Target: mitochondrial RNA-polymerase (POLRMT) (Mus musculus, UniProt Q8BKF1)
Test: Homogeneous TR-FRET assay for mitochondrial transcription activity
Type: biochemical
Settings: homogeneous TR-FRET assay according to Example 4; activity class
From the text: The TR-FRET assay was basically conducted as described in WO2016/193,231A1, especially as described in example 1 (hereby incorporated by reference). With respect to the background of the mitochondrial transcription it is referred to Falkenberg et al. (2002) and Posse et al. (Posse et al., 2015). The method monitors the activity of mitochondrial RNA-polymerase via detection of the formation of its product, a 407 bp long RNA sequence. Detection of the product is facilitated by hybridization of two DNA-oligonucleotide probes to specific and adjacent sequences within the RNA product sequence. Upon annealing of the probes, two fluorophores that are coupled directly to an acceptor nucleotide probe (ATT0647, 5′) or introduced via a coupled streptavidin interacting with a biotinylated donor nucleotide probe on the other side (Europium cryptate, 3′) are brought into sufficient proximity to serve as a fluorescence-donor-acceptor pair as generally described in Walters and Namchuk (2003). Thus, a FRET signal at 665 nm is generated upon excitation at 340 nm.
Briefly, the protocol described here was applied for screening and activity determination in a low-volume 384-well microtiter plate with non-binding surface. For high-throughput application in the 1536-well microtiter plate format, volumes of the reagent mixes were adjusted, maintaining the volumetric ratio. Proteins POLRMT (NM_172551.3), TFAM (NM_009360.4) and TFB2 M (NM_008249.4) were diluted from their stocks to working concentrations of 150 nM, 1.8 μM and 330 nM respectively, in a dilution buffer containing 100 mM Tris-HCl pH 8.0, 200 mM NaCl, 10% (v/v) glycerole, 2 mM glutathione (GSH), 0.5 mM EDTA and 0.1 mg/mL BSA. Protein dilutions and template DNA, comprising a pUC18 plasmid encoding the mitochondrial light strand promoter, restriction linearized proximal to the promoter 3′-end (pUC-LSP), were mixed at the twofold final assay-concentration in a reaction buffer, containing 10 mM Tris-HCl pH 7.5, 10 mM MgCl2, 40 mM NaCl, 2 mM GSH, 0.01% (w/v) Tween-20 and 0.1 mg/mL BSA.
5 μL of this mix were dispensed, depending on the chosen microtiter plate format, using multi-channel pipettes or a Multidrop® dispenser (Thermo Fisher Scientific, Waltham Mass.) into the wells of a microtiter plate and incubated at room temperature (RT) for 10 min. Chemical compounds under scrutiny in the assay were applied using contact-free acoustic droplet-dispensing (Echo520® Labcyte Inc., Sunnyvale Calif.) from 10 mM compound stocks in 100% DMSO, to a final concentration of 10 μM or in serial dilution series of the required concentration range. Equal amounts of DMSO without any compound were added to positive control samples, followed by an incubation step at RT for 10 min.
The enzymatic reaction was started by the addition of 5 μL of a mix of […] in reaction buffer to a final concentration of 500 μM each. No nucleotide mix was added to negative control samples. The content of the wells was mixed using a VarioTeleshaker™ (Thermo Fisher Scientific, Waltham Mass.) at 1,500 rpm for 45 sec after which the microtiter plate was centrifuged at 500×g for 1 min. The samples were incubated for 2 h at RT with humidity control to avoid evaporation. The detection reagents were prepared in a buffer that was composed, such that the enzymatic reaction was terminated due to chelating of Mg-ions and increased ionic strength, containing 50 mM Tris-HCl pH 7.5, 700 mM NaCl, 20 mM EDTA, and 0.01% (w/v) Tween-20. Importantly Eu-cryptate-coupled streptavidin had to be pre-incubated with a 100-fold molar excess of a random sequence oligonucleotide for 10 min at RT in the dark to block unspecific binding of single stranded RNA to the protein. Subsequently, the blocked streptavidin(—Eu) was mixed with the DNA-probes on ice and kept away from light until use. […]

Sequence of mitochondrial RNA-polymerase (POLRMT) (Q8BKF1 42-1207): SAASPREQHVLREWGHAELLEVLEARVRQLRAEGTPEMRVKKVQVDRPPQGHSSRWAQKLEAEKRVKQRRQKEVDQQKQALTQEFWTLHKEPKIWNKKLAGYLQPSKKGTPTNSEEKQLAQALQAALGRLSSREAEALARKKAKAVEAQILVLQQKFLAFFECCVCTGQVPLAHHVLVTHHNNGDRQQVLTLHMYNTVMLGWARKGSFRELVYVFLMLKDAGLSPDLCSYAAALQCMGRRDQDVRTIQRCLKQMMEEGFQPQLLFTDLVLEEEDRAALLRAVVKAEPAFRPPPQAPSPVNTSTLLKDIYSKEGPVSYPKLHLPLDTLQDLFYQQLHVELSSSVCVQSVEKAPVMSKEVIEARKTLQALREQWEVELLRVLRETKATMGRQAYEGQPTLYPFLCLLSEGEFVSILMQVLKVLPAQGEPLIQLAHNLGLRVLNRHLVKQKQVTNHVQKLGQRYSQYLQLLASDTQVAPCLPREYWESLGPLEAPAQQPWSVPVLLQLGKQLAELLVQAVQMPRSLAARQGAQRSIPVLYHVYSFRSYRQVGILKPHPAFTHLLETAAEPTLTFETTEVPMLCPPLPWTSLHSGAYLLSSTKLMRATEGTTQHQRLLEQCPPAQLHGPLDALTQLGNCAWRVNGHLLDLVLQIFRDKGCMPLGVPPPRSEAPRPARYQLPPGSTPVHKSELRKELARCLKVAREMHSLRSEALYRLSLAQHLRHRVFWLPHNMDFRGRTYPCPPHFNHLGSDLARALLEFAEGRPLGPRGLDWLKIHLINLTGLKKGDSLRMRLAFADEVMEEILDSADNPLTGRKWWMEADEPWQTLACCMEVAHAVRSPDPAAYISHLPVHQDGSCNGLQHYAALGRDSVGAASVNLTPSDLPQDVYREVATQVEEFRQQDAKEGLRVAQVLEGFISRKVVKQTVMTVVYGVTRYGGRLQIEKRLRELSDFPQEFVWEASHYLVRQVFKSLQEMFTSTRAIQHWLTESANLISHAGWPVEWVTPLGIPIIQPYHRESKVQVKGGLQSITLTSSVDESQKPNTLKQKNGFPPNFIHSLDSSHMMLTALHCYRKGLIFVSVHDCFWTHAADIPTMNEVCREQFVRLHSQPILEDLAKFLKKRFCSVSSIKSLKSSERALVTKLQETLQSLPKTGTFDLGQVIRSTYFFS

Row | Structure (SMILES) | IC50
1 | CC(Oc1ccc2c(-c3ccccc3Cl)cc(=O)oc2c1)C(=O)O (centres unmarked) [Compound 96, 2-[4-(2-chlorophenyl)-2-oxo-chromen-7-yl]oxypropanoic acid] | 0.1 to 1 µM
2 | Cc1ccccc1-c1cc(=O)oc2cc(OC(C)C(=O)O)ccc12 (centres unmarked) [Compound 97, 2-[4-(o-tolyl)-2-oxo-chromen-7-yl]oxypropanoic acid] | 0.1 to 1 µM
3 | CC(Oc1ccc2c(-c3ccc(F)cc3Cl)cc(=O)oc2c1)C(=O)O (centres unmarked) [Compound 99, 2-((4-(2-chloro-4-fluorophenyl)-2-oxo-2H-chromen-7-yl)oxy)propanoic acid] | 0.1 to 1 µM
4 | COC(=O)C[C@@H]1CCCN(C(=O)[C@@H](C)Oc2ccc3c(-c4ccccc4Cl)cc(=O)oc3c2)C1 [Compound 100, methyl 2-[(3S)-1-[(2R)-2-[4-(2-chlorophenyl)-2-oxo-chromen-7-yl]oxypropanoyl]-3-piperidyl]acetate] | < 0.02 µM
5 | COC(=O)C[C@H]1CCCN(C(=O)[C@@H](C)Oc2ccc3c(-c4ccccc4Cl)cc(=O)oc3c2)C1 [Compound 101, methyl 2-[(3R)-1-[(2R)-2-[4-(2-chlorophenyl)-2-oxo-chromen-7-yl]oxypropanoyl]-3-piperidyl]acetate] | < 0.02 µM
6 | C[C@@H](Oc1ccc2c(-c3ccccc3Cl)cc(=O)oc2c1)C(=O)N1CCC[C@@H](CC(=O)O)C1 [Compound 102, 2-[(3S)-1-[(2R)-2-[4-(2-chlorophenyl)-2-oxo-chromen-7-yl]oxypropanoyl]-3-piperidyl]acetic acid] | < 0.02 µM
7 | C[C@@H](Oc1ccc2c(-c3ccccc3Cl)cc(=O)oc2c1)C(=O)N1CCC[C@H](CC(=O)O)C1 [Compound 103, 2-[(3R)-1-[(2R)-2-[4-(2-chlorophenyl)-2-oxo-chromen-7-yl]oxypropanoyl]-3-piperidyl]acetic acid] | < 0.02 µM
8 | C[C@@H](Oc1ccc2c(-c3ccc(F)cc3Cl)cc(=O)oc2c1)C(=O)N1CCC[C@@H](C(=O)O)C1 [Compound 108, (3R)-1-[(2R)-2-[4-(2-chloro-4-fluoro-phenyl)-2-oxo-chromen-7-yl]oxypropanoyl]piperidine-3-carboxylic acid] | < 0.02 µM
9 | CCOC(=O)[C@H]1CCCN(C(=O)C(CC)Oc2ccc3c(-c4ccccc4Cl)cc(=O)oc3c2)C1 (stereo partly drawn) [Compound 109, ethyl (3S)-1-[2-[4-(2-chlorophenyl)-2-oxo-chromen-7-yl]oxybutanoyl]piperidine-3-carboxylate] | 0.02 to 0.1 µM
10 | CC(C)(Oc1ccc2c(-c3ccccc3Cl)cc(=O)oc2c1)C(=O)O [Compound 112, 2-[4-(2-chlorophenyl)-2-oxo-chromen-7-yl]oxy-2-methyl-propanoic acid] | 0.1 to 1 µM
11 | CCOC(=O)C(C)(C)Oc1ccc2c(-c3ccccc3Cl)cc(=O)oc2c1 [Compound 113, ethyl 2-[4-(2-chlorophenyl)-2-oxo-chromen-7-yl]oxy-2-methyl-propanoate] | 0.1 to 1 µM
12 | COC(=O)C1CCN(C(=O)[C@@H](C)Oc2ccc3c(-c4ccc(F)cc4Cl)cc(=O)oc3c2)CC1 [Compound 129, methyl 1-[(2R)-2-[4-(2-chloro-4-fluoro-phenyl)-2-oxo-chromen-7-yl]oxypropanoyl]piperidine-4-carboxylate] | < 0.02 µM
13 | C[C@@H](Oc1ccc2c(-c3ccc(F)cc3Cl)cc(=O)oc2c1)C(=O)Nc1ccc(CO)cc1 [Compound 130, (2R)-2-[4-(2-chloro-4-fluoro-phenyl)-2-oxo-chromen-7-yl]oxy-N-[4-(hydroxymethyl)phenyl]propanamide] | < 0.02 µM
14 | C[C@@H](Oc1ccc2c(-c3ccc(F)cc3Cl)cc(=O)oc2c1)C(=O)N1CCC(C(=O)O)CC1 [Compound 131, 1-[(2R)-2-[4-(2-chloro-4-fluoro-phenyl)-2-oxo-chromen-7-yl]oxypropanoyl]piperidine-4-carboxylic acid] | 0.02 to 0.1 µM
15 | C[C@@H](Oc1ccc2c(-c3ccc(F)cc3Cl)cc(=O)oc2c1)C(=O)N1CCC[C@H](C(N)=O)C1 [Compound 132, (3S)-1-[(2R)-2-[4-(2-chloro-4-fluoro-phenyl)-2-oxo-chromen-7-yl]oxypropanoyl]piperidine-3-carboxamide] | < 0.02 µM
16 | C[C@@H](Oc1ccc2c(-c3ccc(F)cc3Cl)cc(=O)oc2c1)C(=O)N1CCC[C@H](CC(N)=O)C1 [Compound 133, 2-[(3R)-1-[(2R)-2-[4-(2-chloro-4-fluoro-phenyl)-2-oxo-chromen-7-yl]oxypropanoyl]-3-piperidyl]acetamide] | < 0.02 µM
17 | CCc1ccccc1-c1cc(=O)oc2cc(O[C@H](C)C(=O)N3CCC[C@H](C(=O)O)C3)ccc12 [Compound 134, (3S)-1-[(2R)-2-[4-(2-ethylphenyl)-2-oxo-chromen-7-yl]oxypropanoyl]piperidine-3-carboxylic acid] | < 0.02 µM
18 | COC(=O)[C@@H]1CN(C(=O)[C@@H](C)Oc2ccc3c(-c4ccc(F)cc4Cl)cc(=O)oc3c2)CCN1 [Compound 135, methyl (2S)-4-[(2R)-2-[4-(2-chloro-4-fluoro-phenyl)-2-oxo-chromen-7-yl]oxypropanoyl]piperazine-2-carboxylate] | 0.1 to 1 µM
19 | C[C@@H](Oc1ccc2c(-c3ccc(F)cc3Cl)cc(=O)oc2c1)C(=O)N1CCN[C@H](C(=O)O)C1 [Compound 138, (2S)-4-[(2R)-2-[4-(2-chloro-4-fluoro-phenyl)-2-oxo-chromen-7-yl]oxypropanoyl]piperazine-2-carboxylic acid] | 0.02 to 0.1 µM
20 | COCCc1ccc(NC(=O)[C@@H](C)Oc2ccc3c(-c4ccc(F)cc4Cl)cc(=O)oc3c2)cc1 [Compound 140, (2R)-2-[4-(2-chloro-4-fluoro-phenyl)-2-oxo-chromen-7-yl]oxy-N-[4-(2-methoxyethyl)phenyl]propanamide] | 0.1 to 1 µM
21 | COC(=O)C[C@H]1CCN(C(=O)[C@@H](C)Oc2ccc3c(-c4ccc(F)cc4Cl)cc(=O)oc3c2)C1 [Compound 142, methyl 2-[(3R)-1-[(2R)-2-[4-(2-chloro-4-fluoro-phenyl)-2-oxo-chromen-7-yl]oxypropanoyl]pyrrolidin-3-yl]acetate] | 0.02 to 0.1 µM
22 | COC(=O)c1cncc(NC(=O)[C@@H](C)Oc2ccc3c(-c4ccc(F)cc4Cl)cc(=O)oc3c2)c1 [Compound 143, methyl 5-[[(2R)-2-[4-(2-chloro-4-fluoro-phenyl)-2-oxo-chromen-7-yl]oxypropanoyl]amino]pyridine-3-carboxylate] | 0.1 to 1 µM
23 | COC(=O)C[C@@H]1CCN(C(=O)[C@@H](C)Oc2ccc3c(-c4ccc(F)cc4Cl)cc(=O)oc3c2)C1 [Compound 144, methyl 2-[(3S)-1-[(2R)-2-[4-(2-chloro-4-fluoro-phenyl)-2-oxo-chromen-7-yl]oxypropanoyl]pyrrolidin-3-yl]acetate] | 0.02 to 0.1 µM
24 | COC(=O)c1ccnc(NC(=O)[C@@H](C)Oc2ccc3c(-c4ccc(F)cc4Cl)cc(=O)oc3c2)c1 [Compound 146, methyl 2-[[(2R)-2-[4-(2-chloro-4-fluoro-phenyl)-2-oxo-chromen-7-yl]oxypropanoyl]amino]pyridine-4-carboxylate] | 0.1 to 1 µM
25 | C[C@@H](Oc1ccc2c(-c3ccc(F)cc3Cl)cc(=O)oc2c1)C(=O)Nc1cncc(C(=O)O)c1 [Compound 148, 5-[[(2R)-2-[4-(2-chloro-4-fluoro-phenyl)-2-oxo-chromen-7-yl]oxypropanoyl]amino]pyridine-3-carboxylic acid] | < 0.02 µM
26 | C[C@@H](Oc1ccc2c(-c3ccc(F)cc3Cl)cc(=O)oc2c1)C(=O)N1CCN[C@@H](C(=O)O)C1 [Compound 150, (2R)-4-[(2R)-2-[4-(2-chloro-4-fluoro-phenyl)-2-oxo-chromen-7-yl]oxypropanoyl]piperazine-2-carboxylic acid] | 0.02 to 0.1 µM

Reference: patent US11111238B2, “Coumarin derivatives, processes for their preparation and uses thereof for the treatment of cancer” (Lead Discovery Center GmbH, priority 2017, dated 2021)
